Measurements from US20240368191A1, “HETEROCYCLIC COMPOUNDS AND USES THEREOF” (Kumquat Biosciences Inc., priority 2021, published 2024).

Columns and labels:
[1] = molecular target: T1, K-Ras G12S (Homo sapiens, UniProt P01116, G12S); experiment: HTRF assay, K-Ras G12S / SOS1 interaction; type: biochemical; conditions: IC50 against K-Ras G12D divided by IC50 against K-Ras G12S
T1 construct: made in house; host or cells: E. coli, e.g. BL21 (DE3)
Excerpt: This assay can be also used to assess a selective inhibition or reduction of signaling output of a mutant Ras protein relative to a wildtype, or relative to a different mutant Ras protein. For example, the equilibrium interaction of wildtype Kras or K-Ras mutant (e.g., wildtype or a mutant thereof including those mentioned in Example 6) with SOS1 (e.g., hSOS1) can be assessed as a proxy or an indication for a subject compound's ability to bind and inhibit Ras protein. HTRF assay detects from (i) a fluorescence resonance energy transfer (FRET) donor (e.g., antiGST-Europium) that is bound to GST-tagged K-Ras mutant to (ii) a FRET acceptor (e.g., anti-6His -XL665) bound to a His -tagged hSOS1.
The assay buffer can contain ˜5 mM HEPES pH 7.4, ˜150 mM NaCl, ˜1 mM DTT, 0.05% BSA and 0.0025% (v/v) Igepal. A Ras working solution is prepared in an assay buffer containing typically a suitable amount of the protein construct (e.g., GST-tagged K-Ras mutant) and the FRET donor (e.g., antiGST-Eu(K) from Cisbio, France). A SOS1 working solution is prepared in an assay buffer containing suitable amount of the protein construct (e.g., His -hSOS1) and the FRET acceptor (e.g., anti-6His -XL665 from Cisbio, France). A suitable amount of the protein construct will depend on the range of activity or range of IC50 values being detected or under investigation. For detecting IC50 within a range of 500 nM, the protein constructs of the same range of molarity can be utilized.
A fixed volume of DMSO with or without test compound is transferred into a 384-well plate. Ras working solution is added to all wells of the test plate. SOS1 working solution is added to all wells except for those that are subsequently filled the inhibitor control solution. Upon incubation for about 10 minutes or longer, the fluorescence is measured with a M1000Pro plate reader (Tecan) using HTRF detection (excitation 337 nm, emission 1: 620 nm, emission 2: 665 nm). Compounds are tested in duplicates at different concentrations (for example, 10 μM, 2.5 μM, 0.63 μM, 0.16 μM, 0.04 μM, 0.01 μM test compound). The ratiometric data (i.e., emission 2 divided by emission 1) is used to calculate IC50 values against Ras using GraphPad Prism (GraphPad software). Following this general procedure, samples were tested with or without a subject compound disclosed herein including compounds exemplified in Table 3 to assess their abilities to inhibit K-Ras G12S relative to another mutant (e.g., K-Ras G12D). Signaling output measured in terms of IC50 values can be obtained, a ratio of IC50 against one mutant relative to another mutant can be calculated. For instance, a selective reduction of K-Ras G12S signaling output can be evidenced by a ratio greater than one. In particular, a selective reduction of K-Ras G12S signaling relative to K-Ras G12D signaling is evidenced as the ratio of IC50 (against K-Ras G12D) to IC50 (against K-Ras G12S) is greater than 1.

[2] = molecular target: T2, KRAS G12D 1-169 (His-tagged, GDP-loaded) (Homo sapiens, UniProt P01116, G12D); experiment: Covalent modification of KRAS protein by intact-protein LC-MS; type: binding; conditions: comparable or same conditions as K-Ras G12S
T2 construct: His -tagged GDP-loaded G12D 1-169; made in house; host or cells: E. coli, e.g. BL21 (DE3)
In short: (§1)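 Percent modification is derived from deconvoluted intact-protein LC-ESI-MS peak intensities of adducted versus unmodified KRAS. GDP-loaded His-tagged KRAS 1-169 (~2 μM, HEPES buffer at physiological conditions) was exposed to compound for 24 hrs at room temperature, then quenched with formic acid before C4 reversed-phase separation.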

[3] = molecular target: T3, KRAS G12S 1-169 (His-tagged, GDP-loaded) (Homo sapiens, UniProt P01116, G12S); experiment: as above; type: binding; conditions: KRAS G12S, 24 hr
T3 construct: His -tagged GDP-loaded G12S 1-169; made in house; host or cells: E. coli, e.g. BL21 (DE3)
In short: as §1

[4] = test system: A549 cells; experiment: Cell proliferation assay (CellTiter-Glo), K-Ras G12S cells; type: cell-based; conditions: A549 cells; Comparative Compound A lacking the warhead vs Compound B
Method: A549 (ATCC CRL-185) and LS123 (ATCC CRL-255) cell lines comprise a G12S mutation and can be used to assess Ras cellular signaling in vitro, e.g., in response to the compounds herein. A549 culture medium is prepared with RPMI-1640 and 10% heat-inactivated FBS. LS123 culture medium is prepared with RPMI-1640 and 10% heat-inactivated FBS. A CellTiter-Glo (CTG) luminescent based assay (Promega) is used to assess growth of the cells, as a measurement of the ability of the compounds herein to inhibit Ras signaling in the cells. The cells (e.g., 800 per well) are seeded in their respective culture medium in standard tissue culture-treated 384-well format plates (Falcon #08-772-116) or ultra-low attachment surface 384-well format plates (S-Bio #MS-9384WZ). The day after plating, cells are treated with a dilution series (e.g., a 10 point 3-fold dilution series) of the compounds herein (e.g., approximately 40 μl final volume per well). Cell viability can be monitored (e.g., approximately 6 days later) according to the manufacturer's recommended instructions, where the CellTiter-Glo reagent is added (e.g., approximately 10 μl), vigorously mixed, covered, and placed on a plate shaker (e.g., approximately for 20 min) to ensure sufficient cell lysis prior to assessment of luminescent signal. The IC50 values are determined using the four parameter fit. The resulting IC50 value is a measurement of the ability of the compounds herein to reduce cell growth of Ras-driven cells (e.g., tumor cell lines) in vitro and/or in vivo.

[5] = Metabolic (microsomal) stability assay; conditions: pooled liver microsomes, pH 7.4
Method: The metabolic stability of a test compound is assayed at 37° C. using pooled liver microsomes (mouse or human liver microsomes). An aliquot of 10 μL of 50 μM test compound is mixed with 490 μL of 0.611 mg/mL liver microsomes, then 50 μL of the mixtures are dispensed to the 96 well tubes and warmed at 37° C. for 10 minutes. The reactions are initiated by adding 50 μL of the pre-warmed NADPH regeneration system solution (add 1.2 μL solution, 240 μl solution B, mix with 10.56 ml KPBS) and then incubated at 37° C. The final incubation solution contains 100 mM potassium phosphate (pH 7.4), 1.3 mM NADP+, 3.3 mM glucose 6-phosphate, 0.4 Unit/mL of glucose 6-phosphate dehydrogenase, 3.3 mM magnesium chloride, 0.3 mg/mL liver microsomes and 0.5 μM test article. After 0, 15, 30 and 60 minutes in a shaking incubator, the reactions are terminated by adding 100 μL of acetonitrile containing 200 nM buspirone as an internal standard. All incubations are conducted in duplicate. […] Samples are then centrifuged at 3500 rpm for 10 minutes (4° C.) using Sorvall Legend XRT Centrifuge (Thermo Scientific, GE). Supernatants (40 μL) are transferred into clean 96-deep well plates. Each well is added with 160 μL of ultrapure water (Milli-Q, Millipore Corporation) with 0.1% (v/v) formic acid (Fisher Chemical), mixed thoroughly and subjected to LC/MS/MS analysis in MRM positive ionization mode.
All the samples are measured using a mass spectrometer (QTrap 5500 quadrupole/ion trap) coupled with a Shimadzu HPLC system. The HPLC system consisted of a Shimadzu series degasser, binary quaternary gradient pumps, column heater coupled to an autosampler, and a Phenomenex Gemini-NX, C18, 3.0 μm or Phenomenex Lunar, C8, 5.0 μM HPLC column (Phenomenex, Torrance, CA), and eluted with a mobile phase gradient consisting of Solution A (0.1% formic acid water) and Solution B (0.1% formic acid acetonitrile). The column temperature is maintained at 40° C. All the analytes are detected with positive-mode electrospray ionization (ES+).
The half-life for the metabolic degradation of the test compound is calculated by plotting the time-course disappearance of the test compound during the incubation with liver microsomes. Each plot is fitted to a first-order equation for the elimination of the test compound (% remaining compound) versus time using non-linear regression (Equation 1).
where Ct is the mean relative substrate concentration at time t and C0 is the initial concentration (0.5 μM) at time 0. Note that the area ratio of the substrate peak to an internal standard peak is proportional to the analyte concentration and is used for regression analysis to derive a value of k.

Compound	Ratio of IC50 KRAS G12D vs. IC50 KRAS G12S [1]	covalent labeling of K-Ras G12D [2]	% G12S Modification at 24 hr. [3]	Compound IC50 Ratio IC50 (Cpd A):IC50 (Cpd B) [4]	half-life at 0.5 μM [5] [min]
2-amino-4-(6-chloro-4-(8-(5- chloro-1H-1,2,4-triazole-1- carbonyl)-3,8-diazabicyclo- [3.2.1]octan-3-yl)-8-fluoro-2- (((2R,7aS)-2-fluorotetrahydro- 1H-pyrrolizin-7a(5H)-yl)meth- oxy)quinazolin-7-yl)-7-fluoro- benzo[b]thiophene-3-carbonitrile [Compound A194]	A (A: indicates that the ratio of IC50 against KrasG12D vs. IC50 against KrasG12S is 1-fold or greater)	essentially no detectable labeling	++ (++ indicates between about 1%-20% labelling)		
N#CCc1ncn(C(=O)N2CC3(C2)CN(c2nc(OC[C@@]45CCCN4C[C@H](F)C5)nc4c(F)c(-c5ccc(F)c6sc(N)c(C#N)c56)c(Cl)cc24)CCO3)n1 [Compound A110, 2-amino-4-(6-chloro-4-(2-(3-(cyanomethyl)-1H-1,2,4-triazole-1-carbonyl)-5-oxa-2,8-diazaspiro[3.5]nonan-8-yl)-8-fluoro-2-(((2R,7aS)-2-fluoro-tetrahydro-1H-pyrrolizin-7a(5H)-yl)methoxy)quinazolin-7-yl)-7-fluorobenzo[b]thio-phene-3-carbonitrile]		essentially no detectable labeling		>4 (A549 cells)	> 10
CN1CCC[C@H]1COc1nc(N2CCOC3(CN(C(=O)n4cncn4)C3)C2)c2cc(Cl)c(-c3ccc(F)c4sc(N)c(C#N)c34)c(F)c2n1 [Compound A137, 4-(4-(2-(1H-1,2,4-triazole-1-carbonyl)-5-oxa-2,8-diaza-spiro[3.5]nonan-8-yl)-6-chloro-8-fluoro-2-(((S)-1-methylpyr-rolidin-2-yl)methoxy)quinaz-olin-7-yl)-2-amino-7-fluoro-benzo[b]thiophene-3-carbonitrile]		essentially no detectable labeling		>4 (A549 cells)	
N#Cc1cn(C(=O)N2CCC(Nc3nc(OC[C@@]45CCCN4C[C@H](F)C5)nc4c(F)c(-c5ccc(F)c6sc(N)nc56)c(Cl)cc34)CC2)cn1 [Compound A160, 1-(4-((7-(2-amino-7-fluorobenzo-[d]thiazol-4-yl)-6-chloro-8-fluoro-2-(((2R,7aS)-2-fluoro-tetrahydro-1H-pyrrolizin-7a(5H)-yl)methoxy)quinazolin-4-yl)amino)piperidine-1-car-bonyl)-1H-imidazole-4-carbo-nitrile]	A (A: indicates that the ratio of IC50 against KrasG12D vs. IC50 against KrasG12S is 1-fold or greater)				
Nc1nc2c(-c3c(Cl)cc4c(N[C@H]5C[C@H]6CC[C@@H](C5)N6C(=O)n5cncn5)nc(OC[C@@]56CCCN5C[C@H](F)C6)nc4c3F)ccc(F)c2s1 [Compound A207, ((1R,3r,5S)-3-((7-(2-amino-7-fluorobenzo[d]thiazol-4-yl)-6-chloro-8-fluoro-2-(((2R,7aS)-2-fluorotetrahydro-1H-pyrrolizin-7a(5H)-yl)methoxy)quinazolin-4-yl)amino)-8-azabicyclo[3.2.1]-octan-8-yl)(1H-1,2,4-triazol-1-yl)methanone]	A (A: indicates that the ratio of IC50 against KrasG12D vs. IC50 against KrasG12S is 1-fold or greater)		+++ (+++ indicates greater than 20% labelling)		
Cc1nc(C(C)C)nn1C(=O)N1CC2(C1)CN(c1nc(OC[C@@]34CCCN3C[C@H](F)C4)nc3c(F)c(-c4ccc(F)c5sc(N)c(C#N)c45)c(Cl)cc13)CCO2 [Compound A208, 2-amino-4-(6-chloro-8-fluoro-2-(((2R,7aS)-2-fluorotetrahydro-1H-pyrrolizin-7a(5H)-yl)meth-oxy)-4-(2-(3-isopropyl-5-meth-yl-1H-1,2,4-triazole-1-carbon-yl)-5-oxa-2,8-diazaspiro[3.5]-nonan-8-yl)quinazolin-7-yl)-7-fluorobenzo[b]thiophene-3-carbonitrile]	A (A: indicates that the ratio of IC50 against KrasG12D vs. IC50 against KrasG12S is 1-fold or greater)				
(4-((7-(2-amino-7-fluorobenzo- [d]thiazol-4-yl)-6-chloro-8- fluoro-2-(((2R,7aS)-2-fluoro- tetrahydro-1H-pyrrolizin- 7a(5H)-yl)methoxy)quinazolin- 4-yl)amino)piperidin-1-yl)(2- chloro-1H-imidazol-1-yl)meth- anone [Compound A159]	A (A: indicates that the ratio of IC50 against KrasG12D vs. IC50 against KrasG12S is 1-fold or greater)				
